# Results published in patent US9856290B2, “Glycopeptide compositions and uses thereof” (SUSSEX RESEARCH LABORATORIES INC., priority 2013, dated 2018).
# Marks after values point to notes of the source that are not given here. Where no end group is shown, it is not given here. The star is where a group is joined. Ac7‑β‑Mal = peracetylated β-maltose, CC(=O)OC[C@H]1O[C@@H](*)[C@H](OC(C)=O)[C@@H](OC(C)=O)[C@@H]1O[C@H]1O[C@H](COC(C)=O)[C@@H](OC(C)=O)[C@H](OC(C)=O)[C@H]1OC(C)=O; Ac3‑β‑GlcNAc = per-acetylated β-N-acetylglucosamine, CC(=O)N[C@@H]1[C@@H](OC(C)=O)[C@H](OC(C)=O)[C@@H](COC(C)=O)O[C@H]1*; Ac4‑β‑Glc = per-acetylated β-glucose (tetraacetyl), CC(=O)OC[C@H]1O[C@@H](*)[C@H](OC(C)=O)[C@@H](OC(C)=O)[C@@H]1OC(C)=O; β‑maltose = OC[C@H]1O[C@H](O[C@H]2[C@H](O)[C@@H](O)[C@H](*)O[C@@H]2CO)[C@H](O)[C@@H](O)[C@@H]1O; αGalNAc = CC(=O)N[C@@H]1[C@@H](O)[C@@H](O)[C@@H](CO)O[C@@H]1*; βGlcNAc = CC(=O)N[C@@H]1[C@@H](O)[C@H](O)[C@@H](CO)O[C@H]1*; βGlc = OC[C@H]1O[C@@H](*)[C@H](O)[C@@H](O)[C@@H]1O; βGal = OC[C@H]1O[C@@H](*)[C@H](O)[C@@H](O)[C@H]1O; Palmitoyl = CCCCCCCCCCCCCCCC(=O)*
# Experiments:
# Assay type in all cases: cell-based
# [1] = tested on: Human Dermal Fibroblasts (KMST-6); experiment: ECM ELISA assay: elastin secretion by human dermal fibroblasts; conditions: 5 μM; for biological activity in elastin secretion compared to control / increased elastin secretion compared to control / increased secretion of elastin compared to the reference peptide: 72 hours; for increased elastin secretion compared to control: versus DMSO control; for increased secretion of elastin compared to the reference peptide: versus Pal-KTTKS reference; for Elastin Secretion at 48 hours: KMST-6, 48 hours; for Elastin Secretion at 48 hours / Elastin Secretion at 72 hours: % compared to control set at 100%, normalized to total protein; for Elastin Secretion at 72 hours / ELASTIN (ECM Protein Summary Table): KMST-6, 72 hours; for ELASTIN (ECM Protein Summary Table): control 100%
# Method in brief: (§1)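 KMST-6 human dermal fibroblasts treated with 5 μM compound in serum-free medium with sodium ascorbate and β-aminopropionate fumarate for 48 and 72 h. Secreted fibronectin and elastin quantified by ELISA (450 nm, 4-parameter standard curve), normalized to total cellular protein and expressed as % of DMSO control.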
# [2] = tested on: Human Dermal Fibroblasts (KMST-6); experiment: ECM ELISA assay: fibronectin secretion by human dermal fibroblasts; conditions: 5 μM; for increased fibronectin secretion compared to control: versus DMSO control; for Fibronectin secretion at 48 hours: KMST-6, 48 hours; for Fibronectin secretion at 48 hours / Fibronectin Secretion at 72 hours: % compared to control set at 100%, normalized to total protein; for Fibronectin Secretion at 72 hours / FIBRONECTIN (ECM Protein Summary Table): KMST-6, 72 hours; for FIBRONECTIN (ECM Protein Summary Table): control 100%
# Method in brief: as §1
# [3] = tested on: Human Dermal Fibroblasts (KMST-6); experiment: Total Collagen Assay (Sirius Red Collagen Detection Kit); conditions: 5 μM
# Experimental: KMST-6 cells (Japan Health Sciences Foundation, JCRB0433) were seeded at 7,000 cells/mL in 60 mm tissue culture treated plates (Falcon, 353002) in complete media. The complete media consisted of the following: MEM/EBSS (Hyclone, SH30024.01), 10% Heat-Inactivated FBS (Gibco, 10082-147), 1% L-Glutamine (Hyclone, SH30031.01), 1% Nucleosides (800 mg/L Adenosine, 850 mg/L Guanidine, 730 mg/L Cytidine, 730 mg/L Uridine and 240 mg/L Thymidine), 1% Penicillin/Streptomycin (HyClone, SV30010), 1% Sodium Pyruvate (HyClone, SH30239.01), 1% Non-Essential Amino Acids (Hyclone, SH30238.01) and 0.04% Gentamicin (Gibco, 15710-064). Cells were grown for 2 days prior to treatments. The cells were washed with 1×PBS (Fisher, SH30256.01) and treated with 5 μM glycopeptides (GP003-9, GP004-3, GP004-4), reference (Pal-KTTKS, CPC Scientific, 822197), and control (DMSO, Fisher, BP231-100) in serum-free media supplemented with 50 µg/mL Sodium Ascorbate (Sigma, A4034) and 80 μg/mL β-Aminopropionate Fumarate (Sigma, A3134). The treated cells were incubated at 37° C. and 5% CO2 for 48 and 72 hours. At each timepoint, media from each treatment was collected and centrifuged at 1500 RPM for 15 minutes at 4° C. The supernatant was collected and stored at −80° C. for extracellular matrix protein quantification. The following kit was used for quantification of total collagen: Sirius Red Collagen Detection Kit (Chondrex Inc., 9062). The cells were harvested and lysed with Lysis Buffer (20 mM Tris-HCl (Sigma, T1503), 137 mM NaCl (Sigma, S9888), 2 mM EDTA (Fisher, BP118), 1% IGEPAL (Sigma, 18896), 10% Glycerol (Sigma, G5516), 100 μM PMSF (Fisher, 36978) and 10 μg/mL Leupeptin (Sigma, L2884)). They were placed on a container of ice on an orbital shaker (VWR, 89032-088) for 30 minutes. The cell lysate was centrifuged at 10,000 g for 5 minutes at 4° C. The supernatant was collected and used for protein quantification (BioRad, 500-0112). […]
# [4] = 72 hours, versus Pal-KTTKS reference
Substance,biological activity in elastin secretion compared to control [1],increased elastin secretion compared to control [1] [%],increased secretion of elastin compared to the reference peptide [1] [%],Elastin Secretion at 48 hours [1],Elastin Secretion at 72 hours [1],ELASTIN (ECM Protein Summary Table) [1],biological activity in fibronectin secretion compared to control ([2]; 72 hours),increased fibronectin secretion compared to control ([2]; 72 hours) [%],"increased fibronectin secretion compared to reference [2, 4] [%]",Fibronectin secretion at 48 hours [2],Fibronectin Secretion at 72 hours [2],FIBRONECTIN (ECM Protein Summary Table) [2],"increased total collagen secretion compared to control ([3]; 72 hours, versus DMSO control) [%]","increased total collagen secretion compared to the reference peptide [3, 4] [%]","TOTAL COLLAGEN (ECM Protein Summary Table) ([3]; KMST-6, 72 hours, control 100%)"
Pal-KTT(Ac7-β-Mal)KS-OH (Palmitoyl-KTT(Ac7‑β‑Mal)KS-OH; SMILES CCCCCCCCCCCCCCCC(=O)N[C@@H](CCCCN)C(=O)N[C@H](C(=O)N[C@H](C(=O)N[C@@H](CCCCN)C(=O)N[C@@H](CO)C(=O)O)[C@@H](C)O[C@@H]1O[C@H](COC(C)=O)[C@@H](O[C@H]2O[C@H](COC(C)=O)[C@@H](OC(C)=O)[C@H](OC(C)=O)[C@H]2OC(C)=O)[C@H](OC(C)=O)[C@H]1OC(C)=O)[C@@H](C)O; listed as Homo sapiens) [GP004-3],greater biological activity,285,252,226.1%,384.7* %,385*^# %,greater biological activity,68,50,185.0* %,168.3* %,168*^# %,31,21,131*^# %
Pal-KTTKS(α-GalNAc)-OH (Palmitoyl-KTTKS(αGalNAc)-OH; SMILES CCCCCCCCCCCCCCCC(=O)N[C@@H](CCCCN)C(=O)N[C@H](C(=O)N[C@H](C(=O)N[C@@H](CCCCN)C(=O)N[C@@H](CO[C@H]1O[C@H](CO)[C@H](O)[C@H](O)[C@H]1NC(C)=O)C(=O)O)[C@@H](C)O)[C@@H](C)O; listed as Homo sapiens) [GP002-2],,,,143.8%,127.0%,,,,,95.7%,90.60%,,,,
Dal-KT(β-Mal)TKS-OH (KT(β‑maltose)TKS-OH; not fully specified (N-terminus); printed as Dal-KT(β-Mal)TKS-OH; listed as Homo sapiens) [GP003-10],,,,149.5%,127.6%,,,,,144.5%,94.70%,,,,
Pal-KTTKS(β-Gal)-OH (Palmitoyl-KTTKS(βGal)-OH; SMILES CCCCCCCCCCCCCCCC(=O)N[C@@H](CCCCN)C(=O)N[C@H](C(=O)N[C@H](C(=O)N[C@@H](CCCCN)C(=O)N[C@@H](CO[C@@H]1O[C@H](CO)[C@H](O)[C@H](O)[C@H]1O)C(=O)O)[C@@H](C)O)[C@@H](C)O; listed as Homo sapiens) [GP002-8],,,,103.8%,177.8%,,,,,110.0%,121.0%,,,,
Pal-KT(α-GalNAc)TKS-OH (Palmitoyl-KT(αGalNAc)TKS-OH; SMILES CCCCCCCCCCCCCCCC(=O)N[C@@H](CCCCN)C(=O)N[C@H](C(=O)N[C@H](C(=O)N[C@@H](CCCCN)C(=O)N[C@@H](CO)C(=O)O)[C@@H](C)O)[C@@H](C)O[C@H]1O[C@H](CO)[C@H](O)[C@H](O)[C@H]1NC(C)=O; listed as Homo sapiens) [GP001-4],,,,104.5%,100.0%,,,,,134.2%,112.5%,,,,
Pal-N(β-Glc)KTTKS-OH (Palmitoyl-N(βGlc)KTTKS-OH; listed as Homo sapiens) [GP003-8],,,,111.3%,146.5%,,,,,157.2%,126.0%,,,,
Pal-KTTKS(Ac3-β-GlcNAc)-OH (Palmitoyl-KTTKS(Ac3‑β‑GlcNAc)-OH; SMILES CCCCCCCCCCCCCCCC(=O)N[C@@H](CCCCN)C(=O)N[C@H](C(=O)N[C@H](C(=O)N[C@@H](CCCCN)C(=O)N[C@@H](CO[C@@H]1O[C@H](COC(C)=O)[C@@H](OC(C)=O)[C@H](OC(C)=O)[C@H]1NC(C)=O)C(=O)O)[C@@H](C)O)[C@@H](C)O; listed as Homo sapiens) [GP002-5],,,,159.3%,137.3%,,,,,111.3%,104.2%,,,,
Pal-KTTKS(Ac4-β-Glc)-OH (Palmitoyl-KTTKS(Ac4‑β‑Glc)-OH; SMILES CCCCCCCCCCCCCCCC(=O)N[C@@H](CCCCN)C(=O)N[C@H](C(=O)N[C@H](C(=O)N[C@@H](CCCCN)C(=O)N[C@@H](CO[C@@H]1O[C@H](COC(C)=O)[C@@H](OC(C)=O)[C@H](OC(C)=O)[C@H]1OC(C)=O)C(=O)O)[C@@H](C)O)[C@@H](C)O; listed as Homo sapiens) [GP002-3],greater biological activity,222,189,460.4* %,321.6* %,322*^# %,greater biological activity,35,,135.5%,134.5* %,135* %,,,
Pal-KTT(β-GlcNAc)KS-OH (Palmitoyl-KTT(βGlcNAc)KS-OH; SMILES CCCCCCCCCCCCCCCC(=O)N[C@@H](CCCCN)C(=O)N[C@H](C(=O)N[C@H](C(=O)N[C@@H](CCCCN)C(=O)N[C@@H](CO)C(=O)O)[C@@H](C)O[C@@H]1O[C@H](CO)[C@@H](O)[C@H](O)[C@H]1NC(C)=O)[C@@H](C)O; listed as Homo sapiens) [GP001-12],,,,73.00%,76.75%,,,,,106.5%,89.25%,,,,
